Experiments:
Jurkat = assay: Antiproliferative activity against human Jurkat cells assessed as inhibition of cell proliferation incubated for 72 hrs by CCK8 assay; type: functional, cell-based
[1] = Inhibition of rat recombinant geranylgeranyltransferase type I expressed in Escherichia coli assessed as reduction in geranylgeranylation of RhoA incubated for 30 mins in presence of [3H]GGPP by scintillation counting assay relative to control
K562 = assay: Antiproliferative activity against human K562 cells assessed as inhibition of cell proliferation incubated for 72 hrs by CCK8 assay; type: functional, cell-based; settings: K562, 72 h
[2] = Inhibition of rat recombinant geranylgeranyltransferase type I expressed in Escherichia coli assessed as reduction in geranylgeranylation of K-Ras4B incubated for 30 mins in presence of [3H]GGPP by scintillation counting assay
Rattus norvegicus [3] = organism: Rattus norvegicus; assay: Inhibition of rat recombinant geranylgeranyltransferase type I expressed in Escherichia coli assessed as residual enzyme activity for geranylgeranylation of K-Ras4B at 50 uM incubated for 30 mins in presence of [3H]GGPP by scintillation counting assay relative to control
Rattus norvegicus [4] = organism: Rattus norvegicus; assay: Inhibition of rat recombinant geranylgeranyltransferase type I expressed in Escherichia coli assessed as residual enzyme activity for geranylgeranylation of RhoA at 50 uM incubated for 30 mins in presence of [3H]GGPP by scintillation counting assay relative to control

| SMILES | IC50 [1] | other results |
| --- | --- | --- |
| COC(=O)[C@H](Cc1ccccc1)NC(=O)COCC1=C[C@@H](C(C)(C)C)N(S(=O)(=O)c2ccccc2C)[C@H]1c1ccc(Cl)cc1 | 2.1 to 20 µM | GI50 (Jurkat): 3.51 to 5.1 µM; IC50 (K562): 5.8 to 6.01 µM |
| O=C(O)C1=CC[C@@H](c2cccc(Br)c2)N(S(=O)(=O)c2ccc(Br)cc2)[C@H]1c1cccc(Cl)c1 | 0.529 µM |  |
| CC(C)C[C@H](NC(=O)C1=CC[C@@H](c2cccc(Cl)c2)N(S(=O)(=O)c2ccc(Br)cc2)[C@H]1c1cccc(Br)c1)C(=O)O | 0.04 µM |  |
| COC(=O)[C@H](Cc1ccccc1)NC(=O)C1=C[C@@H](C(C)(C)C)N(S(=O)(=O)c2ccccc2C)[C@H]1c1ccc(Cl)cc1 | > 50 µM | GI50 (Jurkat): 10.5 to 19 µM; GI50 (K562): 14 to 17 µM; IC50 (K562): 10.5 µM |
| O=C(O)C1=CC[C@@H](c2cccc(Cl)c2)N(S(=O)(=O)c2ccc(Br)cc2)[C@H]1c1cccc(Cl)c1 | 0.086 to 0.0871 µM |  |
| Cc1ccc(S(=O)(=O)N2[C@H](C)C=C(C(=O)O)[C@@H]2c2cccc(Cl)c2)cc1 | 30 µM | IC50 [2]: 20 µM |
| CC(C)C[C@H](NC(=O)C1=CC[C@@H](c2cccc(Br)c2)N(S(=O)(=O)c2ccc(F)cc2)[C@H]1c1cccc(Cl)c1)C(N)=O | 6.9 to 32.9 µM | GI50 (Jurkat): 0.32 to 1.76 µM; GI50 (K562): 1.7 to 10.2 µM |
| CCCCC[C@@H]1[C@@H](Sc2ccc(C)cc2)[C@H](C(=O)O)[C@H](c2ccc(C)cc2)N1S(=O)(=O)c1ccc(C)cc1 | 100 µM | IC50 [2]: 65 µM |
| Cc1ccccc1S(=O)(=O)N1[C@@H](c2ccc(Cl)cc2)C(C(N)=O)=C[C@H]1C(C)(C)C |  | IC50 (K562): 11 µM |
| Cc1ccc(S(=O)(=O)N2[C@@H](c3cccc(F)c3)C(C(=O)O)=C[C@H]2C(C)(C)C)cc1 | 23 µM | Activity (Rattus norvegicus [3]): 23.7%; IC50 [2]: 18 µM; Activity (Rattus norvegicus [4]): 9.1% |
| NC(=O)[C@H](Cc1ccccc1)NC(=O)C1=CC[C@@H](c2cccc(Br)c2)N(S(=O)(=O)c2ccc(Cl)cc2)[C@H]1c1cccc(Cl)c1 | 0.3 to 0.45 µM |  |
| CC(C)(C)[C@@H]1C=C(C(=O)O)[C@H](c2ccc(Cl)cc2)N1S(C)(=O)=O | > 50 µM | IC50 [2]: 45 µM |
| Cc1cccc([C@H]2C(C(=O)O)=CC[C@@H](c3cccc(Br)c3)N2S(=O)(=O)c2ccc(Cl)cc2)c1 | 0.256 µM |  |
| CC(C)C[C@H](NC(=O)C1=CC[C@@H](c2cccc(Cl)c2)N(S(=O)(=O)c2ccc(Br)cc2)[C@H]1c1cccc(Br)c1)C(N)=O | > 50 µM | GI50 (Jurkat): 2.22 to 6.38 µM; GI50 (K562): 4.37 to 12.9 µM |
| NC(=O)[C@H](Cc1ccccc1)NC(=O)C1=CC[C@@H](c2cccc(Cl)c2)N(S(=O)(=O)c2ccc(Cl)cc2)[C@H]1c1cccc(Cl)c1 | 0.6 µM |  |
| O=C(O)C1=CC[C@@H](c2cccc(Br)c2)N(S(=O)(=O)c2ccc(F)cc2)[C@H]1c1cccc(Cl)c1 | 0.212 µM |  |
| CC(C)(C)[C@@H]1C=C(C(=O)O)[C@H](c2ccc(Cl)c(Cl)c2)N1S(=O)(=O)C(C)(C)C | 4.4 µM |  |
| CC(C)(C)[C@@H]1C=C(C(=O)O)[C@H](c2ccccc2)N1S(C)(=O)=O | 23 µM | IC50 [2]: 15 µM |
| CC(C)(C)[C@@H]1C=C(C(=O)N[C@@H](Cc2ccccc2)C(N)=O)[C@H](c2ccc(Cl)c(Cl)c2)N1S(=O)(=O)C(C)(C)C | 2.7 to 50 µM | GI50 (Jurkat): 4.57 to 5.91 µM; GI50 (K562): 4.22 to 5.9 µM |
| CCC[C@@H]1[C@@H](Sc2ccc(OC)cc2)[C@@H](C(=O)O)[C@H](c2ccc(Cl)c(Cl)c2)N1S(=O)(=O)c1ccc(C)cc1 | < 2.5 µM | Activity (Rattus norvegicus [3]): 10.9%; IC50 [2]: < 2 µM; Activity (Rattus norvegicus [4]): 1.1% |
| Cc1ccccc1S(=O)(=O)N1[C@@H](c2cccc(Cl)c2)C(CO)=CC[C@H]1c1ccc(Cl)cc1 | > 100 µM | GI50 (Jurkat): 7.5 µM; GI50 (K562): 5.8 µM |
| O=C(O)C1=CC[C@@H](c2ccc(Br)cc2)N(S(=O)(=O)c2ccc(Br)cc2)[C@H]1c1cccc(Cl)c1 | 0.398 µM |  |
| CC(C)(C)[C@@H]1C=C(C(=O)N[C@@H](Cc2ccccc2)C(N)=O)[C@H](c2ccc(Cl)c(Cl)c2)N1S(=O)(=O)c1ccccc1Br | > 20 µM |  |
| CC(C)(C)[C@@H]1C=C(C(=O)O)[C@H](c2ccc(Cl)c(Cl)c2)N1S(=O)(=O)c1c(Cl)cccc1Cl | 4.4 µM |  |
| CC(C)C[C@H](NC(=O)C1=CC[C@@H](c2cccc(Cl)c2)N(S(=O)(=O)c2ccc(Br)cc2)[C@H]1c1cccc(Cl)c1)C(N)=O | > 20 µM |  |
| O=C(O)C1=CC[C@@H](c2ccc(Cl)c(Cl)c2)N(S(=O)(=O)c2ccc(Cl)cc2)[C@H]1c1cccc(Cl)c1 | 0.31 µM |  |
| Cc1ccc(S(=O)(=O)N2[C@H](C)C=C(C(=O)O)[C@@H]2c2ccc(Cl)c(Cl)c2)cc1 | 45 µM | IC50 [2]: 38 µM |
| Cc1ccc(S(=O)(=O)N2[C@@H](c3ccc(Cl)c(Cl)c3)C(C(=O)O)=C[C@H]2C(C)(C)C)cc1 | 40 µM | IC50 [2]: 33 µM |
| COC(=O)[C@H](CC(C)C)NC(=O)C1=CC[C@@H](c2ccc(Cl)cc2)N(S(=O)(=O)c2ccccc2C)[C@H]1c1cccc(Cl)c1 | 20 to 50 µM | GI50 (Jurkat): 3.53 to 6.1 µM |

Source: ChEMBL document CHEMBL4421722, “Inhibitors of protein prenyltransferases” (2013)
